How the values were obtained:
human EDG-2 = biological target: T1, human EDG-2 (Homo sapiens, UniProt Q92633); assay: Evaluation of EDG-2 antagonistic activity by monitoring the change of intracellular calcium ion concentration; type: cell-based; conditions: CHO cells overexpressing human EDG-2 gene; LPA 100 nM; intracellular calcium (Fura2-AM)
T1 construct: expressed in transfected cells; host or cells: Chinese hamster ovary (CHO) cells
Method: Evaluation of EDG-2 Antagonistic Activity by Monitoring the Change of Intracellular Calcium Ion Concentration:
The EDG-2 antagonistic activity was evaluated by using Chinese hamster ovary (CHO) cells which overexpressed human EDG-2 gene. The EDG-2-expressing cells were cultured with Ham's F12 medium (manufactured by GIBCO BRL, No. 11765-047) containing 10% FBS (fetal bovine serum), penicillin/streptomycin and blasticidin (5 μg/ml). Firstly, in order to incorporate Fura2-AM (manufactured by Dojindo, No. 348-05831) into the cells, the cells were incubated in 5 μM Fura2-AM solution (10% FBS, 20 mM HEPES buffer (pH 7.4), 2.5 mM probenecid (manufactured by Sigma, No. P-8761)-containing Ham's F12 medium) at 37° C. for 60 minutes. […] A plate was set in a fluorescence drug screening system (manufactured by Hamamatsu Photonics K.K., FDSS-2000, FDSS-6000) and intracellular calcium ion concentration was measured for 30 seconds without stimulation, and a solution of the compound of present invention was added. Five minutes thereafter, LPA (final concentration: 100 nM) was added, and the intracellular calcium ion concentration before and after the addition at the interval of 3 seconds (excitation wavelength: 340 nm and 380 nm, fluorescence wavelength: 500 nm). […]

[1] = system: urethral pressure of rats; assay: Effect on urethral pressure of rats (in vivo); parameters: species or system rat; conditions: anesthetized male CD(SD)IGS rats, intravenous, dose of 0.1 mg/kg to 1 mg/kg
Excerpt: Effect on Urethral Pressure of Rats (in vivo):
Male CD(SD)IGS rats (Japan Charles River, 8 to 9-week-old at the use) were anesthetized by subcutaneous administration of urethane (1.2 g/kg). After dissection at the cervical midline, a jugular vein catheter for compound administration and an artery catheter for blood pressure measurement were inserted. Next, after dissection at the hypogastric midline, the urethra was ligated under the pubic bone. An urethra catheter for urethral pressure measurement was inserted into the urethra from the dissected the top of the bladder, and ligated and fixed at the bladder neck. Each of the urethra catheter and the artery catheter was connected with a pressure-transducer, and the urethral pressure and blood pressure were measured. […] Then, the test compound was intravenously administered, and the urethral pressure and blood pressure were measured for 20 minutes. […]
The test compound was administered at respective doses. […] For the evaluation of the effect of the test compound on the urethral pressure, the values subtracting the urethral pressure before the administration from the measured urethral pressures every 2 minutes after the administration were obtained and a graph of the change with time (decreased amount of the urethral pressure from the base line) was prepared.

T1 sequence (Q92633 whole entry): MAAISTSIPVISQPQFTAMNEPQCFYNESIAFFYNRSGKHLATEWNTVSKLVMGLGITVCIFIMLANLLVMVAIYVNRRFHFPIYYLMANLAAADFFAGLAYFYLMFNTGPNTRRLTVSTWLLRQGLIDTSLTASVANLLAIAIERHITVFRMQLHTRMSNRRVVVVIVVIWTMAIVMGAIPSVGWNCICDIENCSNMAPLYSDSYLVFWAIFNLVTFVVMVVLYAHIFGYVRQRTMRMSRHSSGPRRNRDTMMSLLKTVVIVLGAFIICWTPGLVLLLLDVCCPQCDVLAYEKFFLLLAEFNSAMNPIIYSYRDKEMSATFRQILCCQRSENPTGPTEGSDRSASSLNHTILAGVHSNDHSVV

COc1cc([C@@H](O)[C@@H](CCCc2ccccc2)Cc2ccc(CC(=O)O)cc2)cc(OC)c1OC [Example 20(2), (4-{(2S)-2-[(S)-hydroxy(3,4,5-trimethoxyphenyl)methyl]-5-phenylpentyl}phenyl)acetic acid]
IC50 (human EDG-2): 40 nM
change of the urethral pressure after administration [1]: significantly remarkable decrease of the urethral pressure
maximum decreased amount of the urethral pressure, of the absolute value of the urethral pressure (pressure before administration - base line value after death) [1]: 30 to 40%

From US7875745B2, “Compounds having lysophosphatidic acid receptor antagonism and uses thereof” (Ono Pharmaceutical Co., Ltd., priority 2003, dated 2011)
